Assay results: PubChem BioAssay (NCI)
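Dose response: 5 concentrations. Exposure: 48 h. Format: 96-well plates. Endpoint: linear interpolation; highest concentration if not reached. The concentration for full growth arrest is given as TGI.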

How the values were obtained:
Assay in all cases: DTP human tumour cell line panel, 48 h
[1] = tested on: COLO 205 colon
[2] = tested on: DU-145 prostate
[3] = tested on: EKVX NSCLC
[4] = tested on: HCC-2998 colon
[5] = tested on: HOP-62 NSCLC
[6] = tested on: IGROV1 ovarian
[7] = tested on: MDA-MB-435
[8] = tested on: T-47D breast
[9] = tested on: A498 renal
[10] = tested on: SK-OV-3 ovarian
[11] = tested on: OVCAR-3 ovarian

| Structure (SMILES) | TGI [1] [µM] | TGI [2] [µM] | TGI [3] [µM] | TGI [4] [µM] | TGI [5] [µM] | TGI [6] [µM] | TGI [7] [µM] | TGI [8] [µM] | TGI [9] [µM] | TGI [10] [µM] | TGI [11] [µM] |
| --- | --- | --- | --- | --- | --- | --- | --- | --- | --- | --- | --- |
| CCOC(=O)CCCn1nnc(C(=O)OCC)c1C(=O)OCC | > 100 | > 100 | > 100 | > 100 | > 100 | > 100 | > 100 | > 100 | – | – | – |
| COCOc1ccc(C(=O)C(C)c2ccc(OCOC)cc2OCOC)c(O)c1 (stereo not drawn) | > 100 | > 100 | > 100 | > 100 | > 100 | > 100 | > 100 | – | > 100 | > 100 | – |
| O=C1CSC2(CC(/C=C/c3ccccc3)=NN2c2cccc(S(=O)(=O)O)c2)N1c1nc2ccccc2s1 (stereo not drawn) | > 100 | 54.4 | > 100 | > 100 | – | 56.6 | 37.2 | 52.5 | 64.3 | – | – |
| C=C(C)[C@@]1(O)O[C@H]2C[C@@]3(C)OC(=CC3=O)/C(C)=C\[C@@H]3OC(=O)[C@@]1(C)[C@H]32 | 35.3 | > 100 | > 65.1 | 35.1 | > 100 | 24.9 | > 100 | 59.2 | – | > 100 | 34.2 |
| CN(C)c1nc2sc3c(c2c(=O)o1)CCCC3 | 53.1 | > 100 | > 100 | > 100 | > 100 | > 100 | > 100 | > 100 | 66.8 | > 100 | – |
| C1=C\SS/C=C\SS/C=C\SS/C=C\SS/1 | > 100 | > 100 | > 100 | > 100 | > 100 | > 100 | > 100 | > 100 | > 100 | > 100 | – |
| C1CC2=C(C1)[Se]C(=C1Sc3nsnc3S1)[Se]2 | > 100 | > 100 | > 100 | > 100 | > 100 | > 100 | > 100 | > 100 | – | > 100 | > 100 |
| CNC(=O)c1ccccc1-[s+]1c2ccccc2c(=O)n1C (stereo not drawn) | > 100 | > 100 | > 100 | – | > 100 | > 100 | > 100 | > 100 | > 100 | – | > 100 |
| Nc1nc2c(=O)c3ccccc3sc2s1 | > 100 | > 100 | > 100 | – | > 100 | > 100 | > 100 | > 100 | > 100 | – | > 100 |
| O=C1c2ccccc2C(=O)N1n1c(Cc2ccccc2)n[nH]c1=O | > 100 | > 100 | > 100 | > 100 | > 100 | > 100 | > 100 | > 100 | > 100 | – | > 100 |
| c1csc(-c2ccc(-c3ccc(-c4ccc(-c5cccs5)s4)s3)s2)c1 | > 100 | > 100 | > 100 | > 100 | > 100 | > 100 | > 100 | – | > 100 | > 100 | > 100 |
